≈ marks a conversion by molar mass, not a printed value.
Columns and labels:
Format in all cases: cell-based
[1] = system: Staphylococcus aureus ATCC29213; test: MIC, microbroth dilution; details: Staphylococcus aureus ATCC29213, rifS; read-out: Antimicrobial activity (MIC)
[2] = system: Staphylococcus aureus ATCC29213 rpoB^D417Y; test: microbe, parasite or virus in culture; details: Staphylococcus aureus ATCC29213 rpoB^D417Y, rifR; read-out: Antimicrobial activity (MIC)
Protocol: (§1) Representative compounds were assayed for antimicrobial activity as follows: Minimum Inhibitory Concentrations (“MICs”) were determined by the microbroth dilution method as per NCCLS guidelines (National Committee for Clinical Laboratory Standards. 2000. Methods for dilution antimicrobial susceptibility tests for bacteria that grow aerobically, 5th ed. M7-A5. National Committee for Clinical Laboratory Standards, Wayne, Pa.), except that all growth incubations were conducted at 37° C. Bacterial cultures were tested in the following bacteriological media: S. aureus, S. epidermidis, and E. coli in Cation-Adjusted Mueller-Hinton Broth, S. pneumoniae in THY Broth supplemented with 1 mg/mL catalase under 5% CO2 atmosphere, S. pyogenes in THY Broth, E. faecalis in BHI Broth, H. influenzae in BHI Broth supplemented with 0.75 μL of 1 mg/mL NAD and 150 μL of 1 mg/ml hematin per 5 mL, and M. smegmatis in Middlebrook Broth plus ADC Enrichment.
(§2) S. aureus ATCC 29213 RpoB^H418Y is a rifampin-resistant strain with a mutation in the RpoB gene of RNA polymerase. […] S. aureus EN1252a gyrA^S84L grlA^S80F is a quinolone-resistant strain due to double gene mutations of DNA gyrase and topoisomerase IV.

[3] = system: Staphylococcus aureus ATCC29213 rpoB^H418Y; test: microbe, parasite or virus in culture; details: Staphylococcus aureus ATCC29213 rpoB^H418Y, rifR; read-out: Antimicrobial activity (MIC)
Protocol: as §1, §2

[4] = system: Staphylococcus aureus EN1252a gyrA^S84L grlA^S80F; test: microbe, parasite or virus in culture; details: Staphylococcus aureus EN1252a gyrA^S84L grlA^S80F, cipR; read-out: Antimicrobial activity (MIC)
Protocol: as §1, §2

[5] = system: Staphylococcus epidermidis ATCC12228; test: MIC, microbroth dilution; details: Staphylococcus epidermidis ATCC12228, rifS; read-out: Antimicrobial activity (MIC)
[6] = system: Streptococcus pneumoniae ATCC6303; test: MIC, microbroth dilution; details: Streptococcus pneumoniae ATCC6303, rifS; read-out: Antimicrobial activity (MIC)
[7] = system: Streptococcus pyogenes ATCC19615; test: MIC, microbroth dilution; details: Streptococcus pyogenes ATCC19615, rifS; read-out: Antimicrobial activity (MIC)
[8] = system: Enterococcus faecalis ATCC29212; test: MIC, microbroth dilution; details: Enterococcus faecalis ATCC29212, rifS; read-out: Antimicrobial activity (MIC)
[9] = system: Haemophilus influenzae ATCC10211; test: MIC, microbroth dilution; details: Haemophilus influenzae ATCC10211, rifS; read-out: Antimicrobial activity (MIC)
[10] = system: Escherichia coli ATCC25922; test: MIC, microbroth dilution; details: Escherichia coli ATCC25922, rifS; read-out: Antimicrobial activity (MIC)
[11] = system: Mycobacterium smegmatis ATCC700084; test: MIC, microbroth dilution; details: Mycolicibacterium smegmatis; Mycobacterium smegmatis ATCC700084, rifS; read-out: Antimicrobial activity (MIC)

Work on `CO[C@H]1/C=C/O[C@@]2(C)Oc3c(C)c(O)c4c(c3/C2=N/OCCN2CCN(c3cccc(C(F)(F)F)c3)CC2)C(=O)C=C(NC(=O)/C(C)=C\C=C\[C@H](C)[C@H](O)[C@@H](C)[C@@H](O)[C@@H](C)[C@H](OC(C)=O)[C@@H]1C)C4=O` [Example 18, 11-Deoxy-11-{2-[4-(3-trifluoromethyl-phenyl)-piperazin-1-yl]ethoxyimino}rifamycin S] yielded an MIC [1] of 0.004 to 0.5 µg/mL (≈ 0.00414 to 0.517 µM), an MIC [2] of 0.25 to 32 µg/mL (≈ 0.259 to 33.1 µM) and an MIC [3] of 0.125 to 16 µg/mL (≈ 0.129 to 16.5 µM). It also gave an MIC [4] of 0.004 to 0.5 µg/mL (≈ 0.00414 to 0.517 µM), an MIC [5] of 0.0005 to 0.063 µg/mL (≈ 0.000517 to 0.0651 µM) and an MIC [6] of 0.0002 to 0.125 µg/mL (≈ 0.000207 to 0.129 µM). The MIC [7] was 0.0005 to 0.063 µg/mL (≈ 0.000517 to 0.0651 µM), the MIC [8] was 2 to 32 µg/mL (≈ 2.07 to 33.1 µM) and the MIC [9] was 0.03 to 2 µg/mL (≈ 0.031 to 2.07 µM). It also gave an MIC [10] of 0.125 to 8 µg/mL (≈ 0.129 to 8.27 µM) and an MIC [11] of 0.5 to 64 µg/mL (≈ 0.517 to 66.2 µM).
Compound `CO[C@H]1/C=C/O[C@@]2(C)Oc3c(C)c(O)c4c(c3/C2=N/OCCN2CCN(S(=O)(=O)c3cccc5ccncc35)CC2)C(=O)C=C(NC(=O)/C(C)=C\C=C\[C@H](C)[C@H](O)[C@@H](C)[C@@H](O)[C@@H](C)[C@H](OC(C)=O)[C@@H]1C)C4=O` [Example 19, 11-Deoxy-11-{2-[4-(isoquinoline-8-sulfonyl)-piperazin-1-yl]-ethoxyimino}rifamycin S] has an MIC [1] of 0.004 to 0.5 µg/mL (≈ 0.00394 to 0.493 µM), an MIC [2] of 0.25 to 32 µg/mL (≈ 0.247 to 31.6 µM) and an MIC [3] of 0.125 to 16 µg/mL (≈ 0.123 to 15.8 µM). It also gave an MIC [4] of 0.004 to 0.5 µg/mL (≈ 0.00394 to 0.493 µM), an MIC [5] of 0.0005 to 0.063 µg/mL (≈ 0.000493 to 0.0621 µM) and an MIC [6] of 0.0002 to 0.125 µg/mL (≈ 0.000197 to 0.123 µM). For the same compound, the MIC [7] was 0.0005 to 0.063 µg/mL (≈ 0.000493 to 0.0621 µM), the MIC [8] was 2 to 32 µg/mL (≈ 1.97 to 31.6 µM) and the MIC [9] was 0.03 to 2 µg/mL (≈ 0.0296 to 1.97 µM). For the same compound, the MIC [10] was 0.125 to 8 µg/mL (≈ 0.123 to 7.89 µM) and the MIC [11] was 0.5 to 64 µg/mL (≈ 0.493 to 63.1 µM).
In the case of `CO[C@H]1/C=C/O[C@@]2(C)Oc3c(C)c(O)c4c(c3/C2=N/OCCN(CCO)CCO)C(=O)C=C(NC(=O)/C(C)=C\C=C\[C@H](C)[C@H](O)[C@@H](C)[C@@H](O)[C@@H](C)[C@H](OC(C)=O)[C@@H]1C)C4=O` [Example 20, 11-Deoxy-11-{2-[bis-(2-hydroxy-ethyl)-amino]ethoxyimino}rifamycin S], the MIC [1] is reported as 0.004 to 0.5 µg/mL (≈ 0.00475 to 0.594 µM), the MIC [2] is reported as 0.25 to 32 µg/mL (≈ 0.297 to 38 µM) and the MIC [3] is reported as 0.125 to 16 µg/mL (≈ 0.148 to 19 µM). It also gave an MIC [4] of 0.004 to 0.5 µg/mL (≈ 0.00475 to 0.594 µM), an MIC [5] of 0.0005 to 0.063 µg/mL (≈ 0.000594 to 0.0748 µM) and an MIC [6] of 0.0002 to 0.125 µg/mL (≈ 0.000238 to 0.148 µM). The MIC [7] was 0.0005 to 0.063 µg/mL (≈ 0.000594 to 0.0748 µM), the MIC [8] was 2 to 32 µg/mL (≈ 2.38 to 38 µM) and the MIC [9] was 0.03 to 2 µg/mL (≈ 0.0356 to 2.38 µM). It also gave an MIC [10] of 0.125 to 8 µg/mL (≈ 0.148 to 9.5 µM) and an MIC [11] of 0.5 to 64 µg/mL (≈ 0.594 to 76 µM).
`CO[C@H]1/C=C/O[C@@]2(C)Oc3c(C)c(O)c4c(c3/C2=N/OCCN2CC(C)NC(C)C2)C(=O)C=C(NC(=O)/C(C)=C\C=C\[C@H](C)[C@H](O)[C@@H](C)[C@@H](O)[C@@H](C)[C@H](OC(C)=O)[C@@H]1C)C4=O` (stereo partly drawn) [Example 21, 11-Deoxy-11-[2-(3,5-dimethyl-piperazin-1-yl)ethoxyimino]rifamycin S] gave an MIC [1] of 0.004 to 0.5 µg/mL (≈ 0.0047 to 0.588 µM), an MIC [2] of 0.25 to 32 µg/mL (≈ 0.294 to 37.6 µM) and an MIC [3] of 0.125 to 16 µg/mL (≈ 0.147 to 18.8 µM). It also gave an MIC [4] of 0.004 to 0.5 µg/mL (≈ 0.0047 to 0.588 µM), an MIC [5] of 0.0005 to 0.063 µg/mL (≈ 0.000588 to 0.074 µM) and an MIC [6] of 0.0002 to 0.125 µg/mL (≈ 0.000235 to 0.147 µM). The MIC [7] was 0.0005 to 0.063 µg/mL (≈ 0.000588 to 0.074 µM), the MIC [8] was 2 to 32 µg/mL (≈ 2.35 to 37.6 µM) and the MIC [9] was 0.03 to 2 µg/mL (≈ 0.0353 to 2.35 µM). It also gave an MIC [10] of 0.125 to 8 µg/mL (≈ 0.147 to 9.4 µM) and an MIC [11] of 0.5 to 64 µg/mL (≈ 0.588 to 75.2 µM).
For `CO[C@H]1/C=C/O[C@@]2(C)Oc3c(C)c(O)c4c(c3/C2=N/OCCN2CCN(C)CC2)C(=O)C=C(NC(=O)/C(C)=C\C=C\[C@H](C)[C@H](O)[C@@H](C)[C@@H](O)[C@@H](C)[C@H](OC(C)=O)[C@@H]1C)C4=O` [Example 22, 11-Deoxy-11-[2-(4-methylpiperazin-1-yl)ethoxyimino]rifamycin S], the MIC [1] was 0.004 to 0.5 µg/mL (≈ 0.00478 to 0.597 µM), the MIC [2] was 0.25 to 32 µg/mL (≈ 0.299 to 38.2 µM) and the MIC [3] was 0.125 to 16 µg/mL (≈ 0.149 to 19.1 µM). The MIC [4] was 0.004 to 0.5 µg/mL (≈ 0.00478 to 0.597 µM), the MIC [5] was 0.0005 to 0.063 µg/mL (≈ 0.000597 to 0.0753 µM) and the MIC [6] was 0.0002 to 0.125 µg/mL (≈ 0.000239 to 0.149 µM). The MIC [7] was 0.0005 to 0.063 µg/mL (≈ 0.000597 to 0.0753 µM), the MIC [8] was 2 to 32 µg/mL (≈ 2.39 to 38.2 µM) and the MIC [9] was 0.03 to 2 µg/mL (≈ 0.0358 to 2.39 µM). The MIC [10] was 0.125 to 8 µg/mL (≈ 0.149 to 9.56 µM) and the MIC [11] was 0.5 to 64 µg/mL (≈ 0.597 to 76.5 µM).
Work on `CO[C@H]1/C=C/O[C@@]2(C)Oc3c(C)c(O)c4c(c3/C2=N/OCCN2CCC(O)CC2)C(=O)C=C(NC(=O)/C(C)=C\C=C\[C@H](C)[C@H](O)[C@@H](C)[C@@H](O)[C@@H](C)[C@H](OC(C)=O)[C@@H]1C)C4=O` [Example 23, 11-Deoxy-11-[2-(4-hydroxypiperadin-1-yl)ethoxyimino]rifamycin S] yielded an MIC [1] of 0.004 to 0.5 µg/mL (≈ 0.00477 to 0.597 µM), an MIC [2] of 0.25 to 32 µg/mL (≈ 0.298 to 38.2 µM) and an MIC [3] of 0.125 to 16 µg/mL (≈ 0.149 to 19.1 µM). It also gave an MIC [4] of 0.004 to 0.5 µg/mL (≈ 0.00477 to 0.597 µM), an MIC [5] of 0.0005 to 0.063 µg/mL (≈ 0.000597 to 0.0752 µM) and an MIC [6] of 0.0002 to 0.125 µg/mL (≈ 0.000239 to 0.149 µM). It also gave an MIC [7] of 0.0005 to 0.063 µg/mL (≈ 0.000597 to 0.0752 µM), an MIC [8] of 2 to 32 µg/mL (≈ 2.39 to 38.2 µM) and an MIC [9] of 0.03 to 2 µg/mL (≈ 0.0358 to 2.39 µM). The MIC [10] was 0.125 to 8 µg/mL (≈ 0.149 to 9.55 µM) and the MIC [11] was 0.5 to 64 µg/mL (≈ 0.597 to 76.4 µM).

Reference: US7256187B2, “Rifamycin C-11 oxime derivatives effective against drug-resistant microbes” (Cumbre Pharmaceuticals Inc., priority 2004, dated 2007)
